Measured values reported in EP1972611A1, “ARYL DIHYDRO-NAPHTHALENE COMPOUNDS, THEIR PREPARATION AND THEIR USE AS AKT INHIBITOR FOR THE PREVENTION AND TREATMENT OF CANCER” (Central South University, priority 2005, dated 2007).
Converted amounts (≈) assume the structure as drawn. Marks after values point to notes of the source that are not given here.

Assays:
[1] = tested on: MDA-MB-435 human breast cancer cells; assay: Growth inhibition of MDA-MB-435 cells measured with MTT method (example titled induction of apoptosis); assay type: cell-based; details: for cells growth (percentage of the control group): p value less than 0.005
Experimental: Experimental design: MDA-MB-435 human breast cancer cells were cultured in the DMEM medium with 5% FCS. Cells were treated with VB-1 at 2 µM, 4 µM and 10 µM for 3 days. Cells were collected from control and treated groups and measured with MTT method.

COC1 cell = assay: Inhibition of COC1 cell growth measured by MTT method; assay type: cell-based; details: Homo sapiens, COC1 cells, 48 hours; for IC50: Calcusyn program
Experimental: (§1) Cell lines of COC1, SMMC-7721, MCF-7and HT-29 were purchased from Chinese storage center for typical culture. Cells were cultured in RPMI1640 with 10% FCS at 37°C and 5% of CO2. Cells at log phase were harvested for the experiment.
(§2) Cells growth inhibition was measured with MTT method. Cells suspension of 1.0-1.2×10^5/ml were prepare and transferred to 96 well plate, 180µl per well. After further incubation for 2 hours, 20µl of various reagents were added to each well. The cells were back to incubator for 48 hours, and followed with addition of MTT of 20µl (5mg/ml)to each will. Additional incubation 6 hours later, the plate was centrifuged at 1000 rpm for 5 minutes. After aspirating supernatant, 100µl DMSO were added to each well and the optical density were measured at 490nm. The cells inhibition (IR) is calculated as : IR(%)=[1-A(treated)/A(control)]×100% , where is A is optical density. The IR was analyzed using Calcusyn program to determine the IC50 of each drug

SMMC-7721 cell = assay: Inhibition of SMMC-7721 cell growth measured by MTT method; assay type: cell-based; details: Homo sapiens, SMMC-7721 cells, 48 hours
Experimental: as §1, §2

HT-29 cell = assay: Inhibition of HT-29 cell growth (MTT method); assay type: cell-based; details: Homo sapiens, HT-29 cells, 48 hours
Experimental: as §1, §2

MCF-7 cell = assay: Inhibition of MCF-7 cell growth (MTT method); assay type: cell-based; details: Homo sapiens, MCF7, MCF-7 cells, 48 hours; for IC50: Calcusyn program
Experimental: as §1, §2

Akt = assay: Inhibition of Akt activation (phosphorylation) in breast cancer cells, Western analysis; assay type: cell-based, human; details: MDA-MB-435 cells; for inhibition of Akt activation by suppressing its phosphorylation: 12 hours, 0, 0.5 µM, 4 µM, and 8 µM, Fig. 3; for levels of total non-phosphorylated Akt protein: Western analysis; for Akt phosphorylation: dose of 4 µM
Experimental: Experimental Design: MDA-MB-435 human breast cancer cells were cultured in the DMEM medium with 5% FCS. When cells reached approximately 50-60% confluence, cells were treated with VB-1 and VB-2 for 12 hours at the following doses: 0, 0.5 µM, 4 µM, and 8 µM. Control and treated cells are harvested and total protein was isolated, normalized, and 45 µg of total protein was subjected to Western analysis. The expression of phosphorylated Akt was determined by using a specific anti-phosphorylated Akt antibody and normalized for total Akt protein expression.

[2] = tested on: human ovarian tumor cells (CoC1); assay: In vivo tumor treatment model: nude mice inoculated with CoC1 tumor cells, tumor volume; design: species or system Balb/c-nu mice; details: for Suppression rate of tumor growth (%): vs. control (NS); for Volume (mm^3): x±s, n=4
Experimental: Experimental Design: Human ovarian tumor cells (CoC1) were purchased from Chinese storage center for typical culture. Cells were cultured in RPMI1640 with 10% FCS. Sub-culture for every 2-3 days. Cells at log phase were harvested for the experiment. Approximately 2x10^6 CoC1 cells were injected subcutaneously into the back of the Balb/c-nu female nude mice at the age of 6-7 weeks. When tumors reached to ≥ 1000 mm^3 (about 30 days), mice bearing similar size tumors were divided into 2 groups: control (NS) and VB-2 treated group. Each group has 4 mice.
VB-2 was dissolved into DMSO and further diluted with normal saline. […] Treatment groups received drugs every other day until the termination of the experiment. All mice were sacrificed at day 20 after the first treatment. Tumor size was determined by three-dimensional measurements (mm) using a caliper. Only measurable tumors were used to calculate the mean tumor volume for each clone at each time point. Each point represents the mean of tumors ± SE. Statistical comparisons for tumor size in treated mice relative to control mice indicate: ** p < 0.01.

Row | Compound | IC50 (MCF-7 cell) [µg/mL] | inhibition at 0.5 µg/mL (COC1 cell) [%] | IC50 (COC1 cell) [µg/mL] | inhibition at 0.1 µg/mL (MCF-7 cell) [%] | inhibition at 0.3 µg/mL (MCF-7 cell) [%] | inhibition at 1 µg/mL (MCF-7 cell) [%] | inhibition at 3 µg/mL (MCF-7 cell) [%] | inhibition at 10 µg/mL (MCF-7 cell) [%] | inhibition at 5 µg/mL (COC1 cell) [%] | inhibition at 50 µg/mL (COC1 cell) [%] | also measured
1 | COc1cc([C@H]2c3cc(O)c(OC)cc3C=C(C=O)[C@@H]2CO)ccc1O [VB-1, 6-hydroxy-4-(4-hydroxy-3-methoxyphenyl)-3-hydroxymethyl-7-methoxy-3,4-dihydro-(3R, 4S)-2-naphthaldehyde] | 58 (≈ 163 µM) | 42.7 | 0.63 (≈ 1.77 µM) | 6.4 | 9.1 | 12.7 | 13.8 | 41.1 |  |  | cell inhibition ([1]; 2 µM, 4 µM and 10 µM for 3 days, Fig 4): dose dependent cell inhibition; cells growth (percentage of the control group) ([1]; 4 µM, 3 days): significantly less than the control group; cells growth (percentage of the control group) ([1]; 8 µM, 3 days): significantly less than the control group; inhibition at 10 µM ([1]; Homo sapiens, 72 h, 10 µM, 3 days): ~50%; inhibition at 0.4 µg/mL (COC1 cell; 0.4 µg/ml): 27.1%; inhibition at 0.6 µg/mL (COC1 cell; 0.6 µg/ml): 48.1%; inhibition at 0.8 µg/mL (COC1 cell; 0.8 µg/ml): 65.9%; inhibition at 1 µg/mL (COC1 cell; 1.0 µg/ml): 66.9%; inhibition at 1 µg/mL (SMMC-7721 cell; 1.00 µg/ml): 20.1%; inhibition at 10 µg/mL (SMMC-7721 cell; 10.00 µg/ml): 22.3%; inhibition at 1 µg/mL (HT-29 cell; 1.00 µg/ml): 22.1%; inhibition at 10 µg/mL (HT-29 cell; 10.00 µg/ml): 32.3%; inhibition of Akt activation by suppressing its phosphorylation (Akt): dose-dependent inhibition; levels of total non-phosphorylated Akt protein (Akt; 12 hours): no effects; Akt phosphorylation (Akt; 12 hours): significantly block; Akt activation (Akt; 12 hours, dose of 8 µM): completely blocks
2 | COc1cc([C@H]2c3c(ccc(O)c3OC)C=C(C=O)[C@@H]2CO)ccc1O [VB-2, 6-hydroxy-4-(4-hydroxy-3-methoxyphenyl)-3-hydroxymethyl-5-methoxy-3,4-dlhydro(3R, 4S)-2-naphthaldehyde] | 226 (≈ 635 µM) | 39.9 |  | 10.6 | 15.8 | 17.6 | 26.4 | 28.7 | 34.1 | 39.5 | Suppression rate of tumor growth (%) ([2]; day 5, dosage 5 mg/kg, i.p. every other day): 7.8%; Suppression rate of tumor growth (%) ([2]; day 10, dosage 5 mg/kg, i.p. every other day): 66.5%; Suppression rate of tumor growth (%) ([2]; day 15, dosage 5 mg/kg, i.p. every other day): 64.5%; Suppression rate of tumor growth (%) ([2]; day 20, dosage 5 mg/kg, i.p. every other day): 55.7%; Volume (mm^3) ([2]; initial tumor volume before treatment, dosage 5 mg/kg): 1543±1466 mm^3; Volume (mm^3) ([2]; tumor volume at day 5, dosage 5 mg/kg, i.p. every other day): 2542±1718 mm^3; Volume (mm^3) ([2]; tumor volume at day 10, dosage 5 mg/kg, i.p. every other day): 2131±1207* mm^3; Volume (mm^3) ([2]; tumor volume at day 15, dosage 5 mg/kg, i.p. every other day): 3600±1755* mm^3; Volume (mm^3) ([2]; tumor volume at day 20, dosage 5 mg/kg, i.p. every other day): 4495±2087** mm^3; inhibition of Akt activation by suppressing its phosphorylation (Akt): dose-dependent inhibition; levels of total non-phosphorylated Akt protein (Akt; 12 hours): no effects; Akt phosphorylation (Akt; 12 hours): significantly block
3 | COc1cc([C@H]2c3cc(O)c(OC)cc3C=C(C=O)[C@@H]2CO[C@@H]2O[C@H](CO)[C@@H](O)[C@H](O)[C@H]2O)ccc1O [VB-3, 6-hydroxy-4-(4-hydroxy-3-methoxyphenyl)-3-glucosyloxymethyl-7-methoxy-3,4-dihydro-(3R, 4S)-2-naphthaldehyde] | 9260 (≈ 17900 µM) |  |  | 10.6 | 11.3 | 14 | 18.5 | 13.8 |  |  | 
4 | COc1cc([C@H]2c3cc(O)c(OC)cc3C=C(CO)[C@@H]2CO)ccc1O [VB-4, 6-hydroxy-7-methoxy-4-(4-hydroxy-3-methoxyphenyl)-2,3-dihydroxymethyl-3,4-dihydro(3R, 4S)-2-hydroynaphthalene] |  | 38.8 |  | 19.7 | 15.6 | 12.3 | 13.2 | 24 | 40.2 | 40.6 | 
5 | COc1cc([C@H]2c3cc(OC)c(OC)cc3C=C(C=O)[C@@H]2CO)ccc1O [VB-7, 6,7-dimethoxy-4-(4-hydroxy-3-methoxyphenyl)-3-hydroxymethyl-3,4-dihydro (3R,4S) -2-naphthaldehyde] |  | 14.3 | 53.2 (≈ 144 µM) |  |  |  |  |  | 27.6 | 50 | 

Further lines, with some results ahead:

Row | IC50 (MCF-7 cell) [µg/mL] | Compound | inhibition at 0.5 µg/mL (COC1 cell) [%] | IC50 (COC1 cell) [µg/mL] | inhibition at 0.1 µg/mL (MCF-7 cell) [%] | inhibition at 0.3 µg/mL (MCF-7 cell) [%] | inhibition at 1 µg/mL (MCF-7 cell) [%] | inhibition at 3 µg/mL (MCF-7 cell) [%] | inhibition at 10 µg/mL (MCF-7 cell) [%] | inhibition at 5 µg/mL (COC1 cell) [%] | inhibition at 50 µg/mL (COC1 cell) [%] | also measured
6 | 471 (≈ 885 µM) | COc1cc2c(cc1O)[C@H](c1ccc(O[C@@H]3O[C@H](C(=O)O)[C@@H](O)[C@H](O)[C@H]3O)c(OC)c1)[C@@H](CO)C(C=O)=C2 [VB-5, 6-hydroxy-3-hydroxymethyl-4-(3-methoxyphenyl)-7-methoxy-3,4-dihydro-2-naphthaldehyde-4'-O-β-D-glucopyranosiduronic acid] | 14.3 | 371 (≈ 697 µM) | 13.6 | 22 | 23.2 | 13.6 | 30.4 | 28.7 | 35.2 | 
7 | 11.2 (≈ 29 µM) | COc1ccc(C2c3cc(OC)c(OC)cc3C=C(C=O)C2CO)cc1OC (centres unmarked) [VB-6, 6-methoxy-4-(4-methoxy-3-methoxyphenyl)-3-hydroxymethyl-7-methoxy-3,4dihydro-2-naphthaldehyde] | 37 | 11.1 (≈ 28.8 µM) | 10.9 | 19.9 | 22.8 | 41.2 | 46.4 | 45.6 | 57.1 | 
